Where “and” joins values, the source holds several entries; their conditions need not be identical. Equal entries are not always repeated. Where two headings read alike, the source gives them in different places. Square brackets hold non-standard residues; d marks the D form. Peptide text beside a SMILES is read from it. hArg = N=C(N)NCCCC[C@H](N)C(=O)O; Aib = CC(C)(N)C(=O)O
Experiments:
[1] = target: T1, human P1R (Homo sapiens, UniProt Q03431); assay: cAMP stimulation in HKRK-B28 cells; format: cell-based; details: for cAMP EMax(obs.): basal 4.0 ± 0.1 pmole/well not subtracted
T1 construct: expressed in transfected cells; host or cells: HKRK-B28 (porcine kidney LLC-PK1, stably transfected)
T1 sequence (Q03431 27-593): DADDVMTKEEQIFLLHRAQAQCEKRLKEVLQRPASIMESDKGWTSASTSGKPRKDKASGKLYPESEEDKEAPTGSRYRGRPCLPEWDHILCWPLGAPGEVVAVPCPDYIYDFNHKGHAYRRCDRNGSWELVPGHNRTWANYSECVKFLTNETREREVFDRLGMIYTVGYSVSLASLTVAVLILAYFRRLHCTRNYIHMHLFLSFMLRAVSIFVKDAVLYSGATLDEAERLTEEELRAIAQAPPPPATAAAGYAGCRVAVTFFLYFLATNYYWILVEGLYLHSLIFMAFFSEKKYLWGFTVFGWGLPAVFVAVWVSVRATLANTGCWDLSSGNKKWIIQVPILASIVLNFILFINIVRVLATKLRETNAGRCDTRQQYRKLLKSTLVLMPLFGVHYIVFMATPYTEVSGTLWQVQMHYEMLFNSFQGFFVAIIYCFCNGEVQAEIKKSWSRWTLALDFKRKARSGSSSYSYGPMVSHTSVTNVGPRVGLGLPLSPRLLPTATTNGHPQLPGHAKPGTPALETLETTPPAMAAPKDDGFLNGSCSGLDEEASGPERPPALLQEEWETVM

[2] = target: T2, PTH-1 receptor endogenously expressed in SaOS-2 cells (Homo sapiens, UniProt Q03431); assay: cAMP stimulation in SaOS-2 cells; format: cell-based; details: for EC50: N.R. = no cAMP response detected; for EMAX(obs.): basal 6.4 ± 0.8
T2 construct: endogenously expressed relatively low levels of the PTH-1 receptor; endogenous in cells; host or cells: SaOS-2 (SaOS-2-B10) human osteosarcoma cells
T2 sequence (Q03431 27-593): T1 sequence (Q03431 27-593)
Procedure: Cell Culture. The cell line HKRK-B28 (Takasu, H., et al., J. Bone Miner. Res. 14:11-20 (1999)) was derived from the porcine kidney cell line, LLC-PK1 by stable transfection with plasmid DNA encoding the human P1R and expresses ˜280,000 receptors per cell. These cells, as well as COS-7 cells and SaOS-2-B10 cells, were cultured at […] in T-75 flasks ([…]) in Dulbecco's modified Eagle's medium (DMEM) supplemented with fetal bovine serum (10%), penicillin G (20 units/ml), streptomycin sulfate (20 μg/ml) and amphotericin B (0.05 μg/ml) in a humidified atmosphere containing 5% CO2. Stock solutions of EGTA/trypsin and antibiotics were from GIBCO; fetal bovine serum was from Hyclone Laboratories (Logan, Utah). COS-7 cells sub-cultured in 24-well plates were transfected with plasmid DNA (200 ng per well) encoding the wild-type human P1R or truncated human P1R deleted for residues (24-181) (Shimizu, M., et al., J. Biol. Chem. 275:21836-21843 (2000)) that was purified by cesium chloride/ethidium bromide density gradient centrifugation, and FuGENE 6 transfection reagent (Roche Indianapolis Ind.) according to the manufacturer's recommended procedure. All cells, in 24-well plates, were treated with fresh media and shifted to 33° C. for 12 to 24 h prior to assay.
cAMP Stimulation. Stimulation of cells with peptide analogs was performed in 24-well plates. Cells were rinsed with 0.5 mL of binding buffer (50 mM Tris-HCI, […], 5 mM KCl, 2 mM CaCl2, 5% heat-inactivated horse serum, 0.5% fetal bovine serum, adjusted to pH 7.5 with HCl) and treated with 200 μL of cAMP assay buffer (Delbecco's modified Eagle's medium containing 2 mM 3-isobutyl-1-methylxanthine, 1 mg/mL bovine serum albumin, 35 mM Hepes-NaOH, pH 7.4) and 100 μL of binding buffer containing varying amounts of peptide analog (final volume=300 μL). The medium was removed after incubation for 30 to 60 minutes at room temperature, and the cells were frozen on dry ice, lysed with 0.5 mL 50 mM HCl, and refrozen ([…]). The cAMP content of the diluted lysate was determined by radioimmunoassay. The EC50 response values were calculated using nonlinear regression (see below).
Data Calculation. Calculations were performed using Microsoft® Excel. Nonlinear regression analyses of binding and cAMP dose-response data were performed using the four-parameter equation: yp=Min+[(Max−Min)/(1+(IC50/x)^slope)]. The Excel Solver function was utilized for parameter optimization, as described previously (Carter, P. H., et al., Endocrinology 140: 4972-4981 (1999); Bowen, W. P., and Jerman, J. C., Trends in Pharmacol. Sci. 16: 413-417 (1995)). Differences between paired data sets were statistically evaluated using a one-tailed Student's t-test, assuming unequal variances for the two sets.
The number of PTH-1 receptors expressed on the surface of the PTH target cells in bone or kidney is uncertain, but it is likely to be considerably lower than that found in HKRK-B28 cells. Therefore, several of the Aib-mounted PTH analogs were evaluated using SaOS-2 cells.

| Molecule | EC50 [1] | cAMP EMax(obs.) [1] [pmole/well] | EMAX(obs.) ([2]; cAMP) [pmole/well] | maximum (Emax) increase in intracellular cAMP [1] [fold] | further results |
| --- | --- | --- | --- | --- | --- |
| CC[C@H](C)[C@H](NC(=O)[C@H](CCC(=O)O)NC(=O)C(C)(C)NC(=O)[C@@H](NC(=O)C(C)(C)N)C(C)C)C(=O)N[C@@H](CCC(N)=O)C(=O)N[C@@H](CC(C)C)C(=O)N[C@@H](CCSC)C(=O)N[C@@H](Cc1c[nH]cn1)C(=O)N[C@@H](CCC(N)=O)C(N)=O [[Aib^1,3,M]PTH(1-10), [Aib^1,3,Gln^10]PTH(1-10)] (H-[Aib]V[Aib]EIQLMHQ-NH2) | 16000 ± 2000 nM | 111 ± 8 | – | – | cAMP potency, fold more potent than [Ala^3,Gln^10]PTH(1-10) [1]: 50 fold; cAMP potency, fold weaker relative to [Aib^1,3,M]PTH(1-11) [1]: 4000 fold |
| H-AVSEIQLMHNLGKH-NH2 [PTH(1-14), reference compound] | – | – | – | – | EC50 ([2]; cAMP): N.R.; EC50 ([2]; cAMP, listed as native PTH(1-14)): no activity could be detected |
| CCCC[C@H](NC(=O)[C@H](CCCNC(=N)N)NC(=O)[C@H](CCC(=O)O)NC(=O)[C@@H](NC(=O)[C@H](CO)NC(=O)[C@H](C)NC(=O)[C@H](CC(C)C)NC(=O)[C@H](Cc1c[nH]cn1)NC(=O)[C@H](CCCCN)NC(=O)CNC(=O)[C@H](CC(C)C)NC(=O)[C@H](CC(N)=O)NC(=O)[C@H](Cc1c[nH]cn1)NC(=O)[C@H](CCCC)NC(=O)[C@H](CC(C)C)NC(=O)[C@H](CCC(N)=O)NC(=O)[C@@H](NC(=O)[C@H](CCC(=O)O)NC(=O)[C@H](CO)NC(=O)[C@@H](NC(=O)[C@H](C)N)C(C)C)[C@@H](C)CC)C(C)C)C(=O)N[C@@H](CCC(N)=O)C(=O)N[C@@H](Cc1c[nH]c2ccccc12)C(=O)N[C@@H](CC(C)C)C(=O)N[C@@H](CCCNC(=N)N)C(=O)N[C@@H](CCCCN)C(=O)N[C@@H](CCCCN)C(=O)N[C@@H](CC(C)C)C(=O)N[C@@H](CCC(N)=O)C(=O)N[C@@H](CC(=O)O)C(=O)N[C@H](C(=O)N[C@@H](Cc1c[nH]cn1)C(=O)N[C@@H](CC(N)=O)C(=O)N[C@@H](Cc1ccc(O)cc1)C(N)=O)C(C)C [PTH(1-34), [Nle^8,21, Tyr^34]PTH(1-34)amide, reference compound] | 2.5 ± 0.4 nM | 280 ± 11 | 350 ± 30 | ~70 | – |

More lines, main results first:

| EC50 [1] | cAMP EMax(obs.) [1] [pmole/well] | EMAX(obs.) ([2]; cAMP) [pmole/well] | maximum (Emax) increase in intracellular cAMP [1] [fold] | Molecule | further results |
| --- | --- | --- | --- | --- | --- |
| 1.1 nM and ~1 nM | 278 ± 20 | 320 ± 30 | – | CC[C@H](C)[C@H](NC(=O)[C@H](CCC(=O)O)NC(=O)C(C)(C)NC(=O)[C@@H](NC(=O)C(C)(C)N)C(C)C)C(=O)N[C@@H](CCC(N)=O)C(=O)N[C@@H](CC(C)C)C(=O)N[C@@H](CCSC)C(=O)N[C@@H](Cc1c[nH]cn1)C(=O)N[C@@H](CCC(N)=O)C(=O)N[C@@H](CCCCNC(=N)N)C(=O)N[C@@H](C)C(=O)N[C@@H](CCCCN)C(=O)N[C@@H](Cc1c[nH]c2ccccc12)C(N)=O [[Aib^1,3,M]PTH(1-14), AibValAibGluIleGlnLeuMetHisGlnHarAlaLysTrp] (H-[Aib]V[Aib]EIQLMHQ[hArg]AKW-NH2) | fold more potent in stimulating cAMP formation than [M]PTH(1-14) [1]: 90 fold and 100 fold; fold more potent in stimulating cAMP formation than [M]PTH(1-14) [2]: 130 fold; fold less potent than PTH(1-34) ([2]; cAMP): 13 fold |
| – | 270 ± 8 | 340 ± 30 | ~70 | CC[C@H](C)[C@H](NC(=O)[C@H](CCC(=O)O)NC(=O)[C@H](C)NC(=O)[C@@H](NC(=O)[C@H](C)N)C(C)C)C(=O)N[C@@H](CCC(N)=O)C(=O)N[C@@H](CC(C)C)C(=O)N[C@@H](CCSC)C(=O)N[C@@H](Cc1c[nH]cn1)C(=O)N[C@@H](CCC(N)=O)C(=O)N[C@@H](CCCCNC(=N)N)C(=O)N[C@@H](C)C(=O)N[C@@H](CCCCN)C(=O)N[C@@H](Cc1c[nH]c2ccccc12)C(N)=O [[M]PTH(1-14), [Ala^3,12,Gln^10,Har^11,Trp^14]PTH(1-14)amide, reference compound] (H-AVAEIQLMHQ[hArg]AKW-NH2) | cAMP potency (EC50), fold less than that of PTH(1-34) [1]: 40 fold |
| 4 nM and ~6 nM | 243 ± 15 | – | – | CC[C@H](C)[C@H](NC(=O)[C@H](CCC(=O)O)NC(=O)C(C)(C)NC(=O)[C@@H](NC(=O)C(C)(C)N)C(C)C)C(=O)N[C@@H](CCC(N)=O)C(=O)N[C@@H](CC(C)C)C(=O)N[C@@H](CCSC)C(=O)N[C@@H](Cc1c[nH]cn1)C(=O)N[C@@H](CCC(N)=O)C(=O)N[C@@H](CCCCNC(=N)N)C(N)=O [[Aib^1,3,M]PTH(1-11), AibValAibGluIleGlnLeuMetHisGlnHar] (H-[Aib]V[Aib]EIQLMHQ[hArg]-NH2) | cAMP potency, fold greater than that of [M]PTH(1-11) [1]: 1,000 fold; cAMP potency, fold greater than that of [M]PTH(1-11) ([1]; listed as [Aib^1,3,Gln^10,Har^11]PTH(1-11)): 1000 fold |
